Values of other authors as cited in US6462233B1, “Process for the preparation of sorbic acid” (Daicel Chemical Industries, Ltd., priority 1998, dated 2002).

Conditions: hot water around 100° C.

In the case of C/C=C/C=C/C(=O)O [sorbic acid], the “solubility of sorbic acid” value is given as “at most 3%”.
